Measurements: ChEMBL document CHEMBL3217556, “Synthesis and anti-Helicobacter pylori activity of analogues of spirolaxine methyl ether” (2012)
Converted amounts (≈) assume the structure as drawn.

Test system: Helicobacter pylori
Experiment: Antibacterial activity against Helicobacter pylori assessed as bacterial colonies formation incubated for 24 hrs measured after up to 5 days culturing time by CFU counting analysis
Assay type: functional

In the case of `COc1cc(OC)c2ccn(CCCC[C@H]3CCC[C@]4(CC[C@H](C)O4)O3)c2c1`, the MBC is reported as 3 µg/mL (≈ 7.74 µM) and the MIC is reported as 3 µg/mL (≈ 7.74 µM).

`COc1cc(OC)c2ccn(CCCCC[C@H]3CCC[C@]4(CC[C@H](C)O4)O3)c2c1` gave an MBC of 8.3 µg/mL (≈ 20.7 µM) and an MIC of 8.3 µg/mL (≈ 20.7 µM).

`COc1cc(OC)c2ccn(CCCCCCCC[C@H]3CCC[C@]4(CC[C@H](C)O4)O3)c2c1` was tested, and the MBC was over 100 µg/mL and the MIC was over 100 µg/mL.

`COc1cc(OC)c2c(c1)N(CCCC[C@H]1CCC[C@]3(CC[C@H](C)O3)O1)C(=O)C2` was tested, and the MBC was 12.5 µg/mL (≈ 31 µM) and the MIC was 12.5 µg/mL (≈ 31 µM).

In the case of `COc1cc(OC)c2c(c1)N(CCCCC[C@H]1CCC[C@]3(CC[C@H](C)O3)O1)C(=O)C2`, the MBC is reported as 12.5 µg/mL (≈ 29.9 µM) and the MIC is reported as 12.5 µg/mL (≈ 29.9 µM).

`COc1cc(OC)c2c(c1)N(CCCCCCCC[C@H]1CCC[C@]3(CC[C@H](C)O3)O1)C(=O)C2` showed an MBC of 16 µg/mL (≈ 34.8 µM) and an MIC of 16 µg/mL (≈ 34.8 µM).

Compound `COc1cc(OC)c2c(c1)[C@@H](CCCC[C@H]1CCC[C@]3(CC[C@H](C)O3)O1)OC2=O` has an MBC of 12.5 µg/mL (≈ 30.9 µM) and an MIC of 12.5 µg/mL (≈ 30.9 µM).

`COc1cc(OC)c2c(c1)[C@@H](CCCCCCCC[C@H]1CCC[C@]3(CC[C@H](C)O3)O1)OC2=O` was tested, and the MBC was 3 µg/mL (≈ 6.51 µM) and the MIC was 3 µg/mL (≈ 6.51 µM).

`COc1cc(OC)c2c(c1)[C@@H](CCCCC[C@H]1CCC[C@]3(CC[C@@H](C)O3)O1)OC2=O` gave an MBC of 1 µg/mL (≈ 2.39 µM) and an MIC of 2 µg/mL (≈ 4.78 µM).
